Experimental data published in US10202349B2, “Asymmetric bis-acridines with antitumour activity and their uses” (POLITECHNIKA GDAŃSKA, priority 2015, dated 2019).

Assays:
AsPC-1 = test: Cytotoxic activity in vitro, SRB; assay type: cell-based, human
Experimental: (§1) Cytotoxic activity tests in-vitro. A measure of the cytotoxic activity of bis-acridines are the EC50 (concentration of studied compounds at which 50% inhibition of proliferation of tumorous is observed) of the evaluated compounds that inhibit the growth of 50% of cells in relation to a control. The cytotoxic activity of the compounds was determined using SRB, recommended by the US National Cancer Institute (USA). As the spectrum of 13 human origin neoplasms in bis-acridine screening studies, we used the following: HT 29 [CRC], HCT 116 [CRC], H 460 [lung cancer], MDA MB 231 [breast cancer], MCF-7 [breast cancer], UM UC3 [bladder cancer], PC 3 [prostate cancer], DU 145 [ prostate cancer], Panc-1 [pancreatic cancer], Mia Pa Ca 2 [pancreatic cancer], BXPC 3 [pancreatic cancer], AsPC1 [pancreatic cancer], Capan-2 [pancreatic cancer]. […] The DU-145 results were substantially a basis for selecting compounds and neoplasms for screening. The next neoplasms most sensitive to the cytotoxic activity of bis-acridines was the CRC HCT-116, as well as breast cancer MBA-MB-231. […] The cytotoxic activity of the remaining bis-acridines is significant or high (EC50 in the range from 1 to 0.04 μM). […] Panc-1, MiaPaCa-2 and Capan-2 are more sensitive, whereas for AsPC-1 and BxPC-3 this activity is at least an order of magnitude smaller.

BxPC-3 = test: Cytotoxic activity in vitro, SRB; assay type: cell-based, human
Experimental: as §1

Capan-2 = test: Cytotoxic activity in vitro, SRB; assay type: cell-based, human
Experimental: as §1

DU-145 = test: Cytotoxic activity in vitro, SRB; assay type: cell-based, human
Experimental: as §1

HCT-116 = test: Cytotoxic activity in vitro, SRB; assay type: cell-based, human
Experimental: as §1

MDA-MB-231 = test: Cytotoxic activity in vitro, SRB; assay type: cell-based, human
Experimental: as §1

MiaPaCa-2 = test: Cytotoxic activity in vitro, SRB; assay type: cell-based, human
Experimental: as §1

PANC-1 = test: Cytotoxic activity in vitro, SRB; assay type: cell-based, human
Experimental: as §1

BXPC 3 = test: Anti-neoplasmic activity against xenograft in hairless mice; assay type: in vivo
Experimental: (§2) For this, we selected 26 bis-acridines, mainly on the basis of the cytotoxic activity. We performed 34 series of experiments evaluating the anti-neoplasmic activity on xenografts in hairless mice against eleven neoplasms of human origin from the determination of the cytotoxic activity of bis-acridines (table 4). The tumours were injected subcutaneously to hairless mice of 5-weeks, female Crl:Nu-Foxnlnu, at a rate of 5×10^6 cells per mouse. After attaining a tumour of about 100 mm^3 or 200 mm^3 in depending on the neoplasm and its take this was 8 or even 30 days, and began therapy. On the day therapy was initiated, we randomised the animals and divided them into groups. Test groups were from 6 to 8 animals, and controls had from 8 to 14 animals. Each compound was tested at three differentiated doses.
(§3) The preparations were administered intravenously (i.v.) twice weekly for 4 weeks (thrice weekly for rapidly growing neoplasms). In several series, we used intraperitoneally (i.p.) administration in the same scheme. […] The therapeutic efficacy of the tested formulations was evaluated by measuring tumour size (length and width measurements of the tumour on the basis of the calculated tumour volume). Tumours were measured twice weekly for a period of about 30 days for fast-growing neoplasms, as well as about 60 days for the slow-growing neoplasms. The tumour volume in the treated groups compared with the control group. On this basis, inhibition of tumour growth was calculated using the following formula: Tumour growth inhibition TGI [%]=100−(ΔVT/ΔVC×100) Where ΔVT—is mean the tumour volume in animals in the group treated at the given day of treatment, minus the mean tumour volume in animals at the date of commencement of therapy. ΔVC is mean tumour volume in animals in the control group on a given day of treatment minus the average tumour volume of animals on the date of commencement of therapy. The results of the tests of anti-neoplasmic activity conducted in xenografts of human-origin neoplasms in mice are shown in Table 5.
(§4) The result above was accepted only in the case that the dose administered in all animals or more than half of the animals that survived to the end of the experiment. In addition, the evaluation was the day that the administration of the preparation was already completed: for the fast-growing neoplasms (eg. HCT116) this was in the days from 15 to 26, while for slow-growing neoplasms (eg. Panc 1) on a day from 34 to 60. […] In addition, the maximum inhibition of neoplasms could be identified in the day, in which there were no factors that could change the value TGI value.
(§5) Such factors may include: a significant decrease in body weight, the appearance of observable toxaemia, excessive rate of tumour growth: tumours in excess of 2000 mm^3 and all animals alive on that day.

Mia Pa Ca 2 = test: as above; assay type: in vivo; conditions: series 28, i.v., single 5 mg/kg, total 28 mg/kg, day 33
Experimental: as §2, §3, §4, §5

PANC 1 = test: as above; assay type: in vivo
Experimental: as §2, §3, §4, §5

AsPC 1 = test: as above; assay type: in vivo; conditions: series 23, i.v., single 6 mg/kg, total 48 mg/kg, day 36, *at least half of animals did not survive
Experimental: as §2, §3, §4, §5

MDA MB 231 = test: as above; assay type: in vivo; conditions: series 34, i.v., single 15 mg/kg, total 120 mg/kg, day 32
Experimental: as §2, §3, §4, §5

SMILES	EC50 (AsPC-1)	EC50 (BxPC-3)	EC50 (Capan-2)	EC50 (DU-145)	EC50 (HCT-116)	EC50 (MDA-MB-231)	EC50 (MiaPaCa-2)	EC50 (PANC-1)	further results
Cc1ccc([N+](=O)[O-])c2c(NCCCN(C)CCCNc3ccc4ncn5c6ccc(O)cc6c(=O)c3c45)c3ccccc3nc12 [C-2045, 9-{N-[(8-hydroxyimidazo[4,5,1-de]-acridin-6-on-5-yl)aminopropyl]-N-methylaminopropylamino}-4′-methyl-1′-nitroacridine]	152 nM	169 nM	52 nM	59 nM	40 nM	52 nM	59 nM	216 nM	TGI [%] [100 − (ΔVT/ΔVC × 100] (BXPC 3; series 25, i.p., single 10 mg/kg, total 80 mg/kg, day 32): 77%; TGI [%] [100 − (ΔVT/ΔVC × 100] (Mia Pa Ca 2): 55%; TGI [%] [100 − (ΔVT/ΔVC × 100] (PANC 1; series 20, i.v., single 10 mg/kg, total 40 mg/kg, day 32): 67%; TGI [%] [100 − (ΔVT/ΔVC × 100] (PANC 1; series 24, i.v., single 2 mg/kg, total 16 mg/kg, day 44): 82%; TGI [%] [100 − (ΔVT/ΔVC × 100] (PANC 1; series 26, i.v., single 10 mg/kg, total 80 mg/kg, day 56): 64%; TGI [%] [100 − (ΔVT/ΔVC × 100] (PANC 1; series 29, i.v., single 5 mg/kg, total 25 mg/kg, day 36): 25%
COc1ccc2c(c1)c(=O)c1c(NCCCN3CCN(CCCNc4c5ccccc5nc5cccc([N+](=O)[O-])c45)CC3)ccc3ncn2c31 [C-2049, 1-[3-(8-methoxy-imidazo[4,5,1-de]-acridin-6-on-5-yl)aminopropyl]-4-[3′-(1′-nitroacridin-1-yl)-aminopropyl]piperazine]	122 nM	75 nM	27 nM	21 nM	28 nM	38 nM	36 nM	40 nM	TGI [%] [100 − (ΔVT/ΔVC × 100] (AsPC 1): 32* %; TGI [%] [100 − (ΔVT/ΔVC × 100] (BXPC 3; series 21, i.v., single 6 mg/kg, total 40 mg/kg, day 34): 63%; TGI [%] [100 − (ΔVT/ΔVC × 100] (PANC 1; series 20, i.v., single 6 mg/kg, total 48 mg/kg, day 32): 63%; TGI [%] [100 − (ΔVT/ΔVC × 100] (PANC 1; series 27, i.v, single 2 mg/kg, total 16 mg/kg, day 47): 80%
Cc1ccc([N+](=O)[O-])c2c(NCCCN(C)CCCNc3ccc4ncn5c6ccccc6c(=O)c3c45)c3ccccc3nc12 [C-2053, 9-{N-[(imidazo[4,5,1-de]-acridin-6-on-5-yl)aminopropyl]-N-methylaminopropylamino}-4′-methyl-1′-nitroacridine]	176 nM	224 nM		65 nM	65 nM		87 nM	98 nM	TGI [%] [100 − (ΔVT/ΔVC × 100] (BXPC 3; series 25, i.v., single 20 mg/kg, total 160 mg/kg, day 36): 84%; TGI [%] [100 − (ΔVT/ΔVC × 100] (BXPC 3; series 33, i.v., single 20 mg/kg, total 160 mg/kg, day 32, *at least half of animals did not survive): 47* %; TGI [%] [100 − (ΔVT/ΔVC × 100] (MDA MB 231): 62%; TGI [%] [100 − (ΔVT/ΔVC × 100] (PANC 1; series 24, i.v., single 15 mg/kg, total 120 mg/kg, day 37): 64%; TGI [%] [100 − (ΔVT/ΔVC × 100] (PANC 1; series 26, i.v., single 20 mg/kg, total 160 mg/kg, day 56): 69%
